Data as given in ChEMBL document CHEMBL1201862, “PubChem BioAssay data set” (2004).
Calls of active or inactive are those of the source.

Experiments:
Vero [1] = test: cells; format: functional; details: Chlorocebus sabaeus
Vero [2] = test: cells; format: functional, cell-based; details: Chlorocebus sabaeus
[3] = target: T1, Carboxy-terminal domain RNA polymerase II polypeptide A small phosphatase 1 (Homo sapiens, UniProt Q9GZU7); test: CTDSP1 inhibitors, concentration-response, biochemical, absorbance readout, ultra-high-throughput screen actives (AID 540297); format: functional
T1 sequence (Q9GZU7 whole entry): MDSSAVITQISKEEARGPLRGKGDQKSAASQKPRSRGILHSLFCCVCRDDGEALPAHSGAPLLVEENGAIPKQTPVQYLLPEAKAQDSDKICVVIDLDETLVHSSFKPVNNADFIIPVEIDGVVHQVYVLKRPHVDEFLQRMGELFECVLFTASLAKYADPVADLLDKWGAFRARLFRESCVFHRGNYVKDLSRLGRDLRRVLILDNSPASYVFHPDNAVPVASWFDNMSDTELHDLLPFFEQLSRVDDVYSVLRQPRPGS

Protein skinhead-1 = target: T2, Protein skinhead-1 (Caenorhabditis elegans, UniProt P34707); format: functional
T2 sequence (P34707 whole entry): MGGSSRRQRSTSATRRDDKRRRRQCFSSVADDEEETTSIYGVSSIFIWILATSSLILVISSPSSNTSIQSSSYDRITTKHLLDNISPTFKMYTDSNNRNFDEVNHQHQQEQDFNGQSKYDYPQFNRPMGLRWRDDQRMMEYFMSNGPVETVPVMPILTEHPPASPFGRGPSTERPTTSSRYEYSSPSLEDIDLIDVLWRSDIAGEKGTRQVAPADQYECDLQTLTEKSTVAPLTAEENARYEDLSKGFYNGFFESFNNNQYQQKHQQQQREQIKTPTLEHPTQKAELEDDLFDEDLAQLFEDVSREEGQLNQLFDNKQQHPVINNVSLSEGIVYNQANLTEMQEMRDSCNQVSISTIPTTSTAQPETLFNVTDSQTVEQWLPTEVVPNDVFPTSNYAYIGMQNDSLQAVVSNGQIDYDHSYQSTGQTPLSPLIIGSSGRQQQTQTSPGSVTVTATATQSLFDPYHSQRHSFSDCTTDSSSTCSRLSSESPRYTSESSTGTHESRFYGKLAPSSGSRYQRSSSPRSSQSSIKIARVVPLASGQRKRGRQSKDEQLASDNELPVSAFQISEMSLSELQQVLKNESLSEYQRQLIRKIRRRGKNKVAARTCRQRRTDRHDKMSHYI

Exodeoxyribonuclease V = target: T3, Exodeoxyribonuclease V (Escherichia coli (strain K12), UniProt P04993+P07648+P08394); test: RecBCD inhibition via phage-restricted bacterial growth – absorbance, V66 E. coli, mutant T4 phage, counter-screen for AddAB inhibitor project, dose response (AID 492957); format: functional, cell-based, Escherichia coli str. K-12 substr. MG1655
T3 sequence (P04993 whole entry): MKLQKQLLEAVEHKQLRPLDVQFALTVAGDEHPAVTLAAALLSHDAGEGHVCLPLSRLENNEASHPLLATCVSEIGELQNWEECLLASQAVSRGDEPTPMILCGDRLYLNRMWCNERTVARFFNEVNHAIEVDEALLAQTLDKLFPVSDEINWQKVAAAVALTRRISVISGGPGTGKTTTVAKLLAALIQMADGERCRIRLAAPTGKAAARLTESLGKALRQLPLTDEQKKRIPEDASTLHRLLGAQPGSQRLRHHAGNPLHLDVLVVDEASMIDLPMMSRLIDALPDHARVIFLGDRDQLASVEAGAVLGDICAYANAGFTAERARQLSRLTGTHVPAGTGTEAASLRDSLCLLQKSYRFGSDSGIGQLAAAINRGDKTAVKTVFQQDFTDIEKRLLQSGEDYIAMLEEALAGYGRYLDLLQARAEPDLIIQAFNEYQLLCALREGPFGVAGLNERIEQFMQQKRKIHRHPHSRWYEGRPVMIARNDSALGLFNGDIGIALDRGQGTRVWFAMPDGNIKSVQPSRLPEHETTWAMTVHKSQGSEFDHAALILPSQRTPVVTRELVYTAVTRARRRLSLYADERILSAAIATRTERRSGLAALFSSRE
T3 sequence (P07648 whole entry): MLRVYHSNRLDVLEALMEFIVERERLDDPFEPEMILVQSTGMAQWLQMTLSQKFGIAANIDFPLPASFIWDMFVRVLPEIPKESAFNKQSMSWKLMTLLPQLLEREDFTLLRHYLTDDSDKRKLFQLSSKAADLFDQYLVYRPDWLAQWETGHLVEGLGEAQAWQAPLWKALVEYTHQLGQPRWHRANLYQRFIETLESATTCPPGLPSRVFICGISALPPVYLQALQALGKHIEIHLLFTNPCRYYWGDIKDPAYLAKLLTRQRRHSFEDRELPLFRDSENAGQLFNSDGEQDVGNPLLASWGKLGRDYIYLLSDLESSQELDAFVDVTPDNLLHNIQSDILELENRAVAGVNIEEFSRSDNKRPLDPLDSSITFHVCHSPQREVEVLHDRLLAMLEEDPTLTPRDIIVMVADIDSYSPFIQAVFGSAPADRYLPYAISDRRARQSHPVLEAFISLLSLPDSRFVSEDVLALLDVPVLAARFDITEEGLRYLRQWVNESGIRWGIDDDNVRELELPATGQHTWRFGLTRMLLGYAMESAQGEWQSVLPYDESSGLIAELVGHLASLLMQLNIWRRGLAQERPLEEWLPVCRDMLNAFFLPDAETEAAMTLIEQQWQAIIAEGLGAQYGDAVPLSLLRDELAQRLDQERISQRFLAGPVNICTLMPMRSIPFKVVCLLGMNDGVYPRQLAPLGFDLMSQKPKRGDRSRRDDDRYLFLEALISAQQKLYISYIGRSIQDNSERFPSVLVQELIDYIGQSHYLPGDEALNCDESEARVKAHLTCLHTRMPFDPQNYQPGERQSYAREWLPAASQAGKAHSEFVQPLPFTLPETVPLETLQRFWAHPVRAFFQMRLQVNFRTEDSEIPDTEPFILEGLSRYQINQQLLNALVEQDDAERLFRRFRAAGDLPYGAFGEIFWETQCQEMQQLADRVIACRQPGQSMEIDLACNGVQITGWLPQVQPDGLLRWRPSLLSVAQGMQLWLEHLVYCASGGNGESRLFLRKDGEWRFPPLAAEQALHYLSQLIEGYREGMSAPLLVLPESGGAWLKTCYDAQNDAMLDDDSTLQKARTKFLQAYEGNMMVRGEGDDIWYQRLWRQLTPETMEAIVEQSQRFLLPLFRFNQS
T3 sequence (P08394 whole entry): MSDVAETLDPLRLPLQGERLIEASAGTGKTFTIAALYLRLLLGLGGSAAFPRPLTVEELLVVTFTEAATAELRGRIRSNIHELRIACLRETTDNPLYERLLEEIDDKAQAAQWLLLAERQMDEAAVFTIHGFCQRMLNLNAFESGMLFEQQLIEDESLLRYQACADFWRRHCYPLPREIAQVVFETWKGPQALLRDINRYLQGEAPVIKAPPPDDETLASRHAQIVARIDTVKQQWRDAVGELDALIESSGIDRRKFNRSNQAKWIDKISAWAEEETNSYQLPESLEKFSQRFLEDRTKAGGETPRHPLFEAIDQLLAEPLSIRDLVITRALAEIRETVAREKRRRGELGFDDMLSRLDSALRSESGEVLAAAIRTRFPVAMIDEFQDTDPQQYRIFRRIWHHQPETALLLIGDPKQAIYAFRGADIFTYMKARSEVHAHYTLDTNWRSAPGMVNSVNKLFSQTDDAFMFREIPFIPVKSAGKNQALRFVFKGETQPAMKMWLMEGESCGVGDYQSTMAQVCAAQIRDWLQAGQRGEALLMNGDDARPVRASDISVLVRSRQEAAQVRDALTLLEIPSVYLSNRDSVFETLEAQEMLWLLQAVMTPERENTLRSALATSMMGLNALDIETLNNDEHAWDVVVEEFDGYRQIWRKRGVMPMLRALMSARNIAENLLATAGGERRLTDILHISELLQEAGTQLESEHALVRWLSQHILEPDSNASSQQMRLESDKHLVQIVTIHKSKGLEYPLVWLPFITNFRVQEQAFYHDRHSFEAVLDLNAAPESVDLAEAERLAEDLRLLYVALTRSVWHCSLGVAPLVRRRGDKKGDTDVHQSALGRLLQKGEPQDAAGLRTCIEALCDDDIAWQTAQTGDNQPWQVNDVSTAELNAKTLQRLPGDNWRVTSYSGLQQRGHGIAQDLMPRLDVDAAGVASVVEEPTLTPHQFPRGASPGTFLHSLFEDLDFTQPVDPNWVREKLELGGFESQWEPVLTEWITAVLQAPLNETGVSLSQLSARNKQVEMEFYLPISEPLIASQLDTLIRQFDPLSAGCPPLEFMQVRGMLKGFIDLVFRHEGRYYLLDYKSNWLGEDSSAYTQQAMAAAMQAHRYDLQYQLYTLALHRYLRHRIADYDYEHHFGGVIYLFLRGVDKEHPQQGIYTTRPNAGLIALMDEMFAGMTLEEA

[4] = Counterscreen for AddAB inhibitors: absorbance-based bacterial cell-based high throughput dose response assay for inhibitors of bacterial viability. [Related pubchem assays (depositor defined):AID435030, AID449728, AID449731, AID488942, AID488955, AID488956]; format: functional
[5] = DRD fibroblast viability loss – cell-based, non-viral oncogenic, luminescence, dose response (AID 1934); format: functional; details: Homo sapiens
BJ [6] = test: cells; format: functional, cell-based; details: Homo sapiens
BJ [7] = test: BJ-TERT fibroblast viability loss – cell-based, RAS-independent, luminescence, dose response (AID 1933); format: functional; details: Homo sapiens
INS1 = test: INS-1E survival protection against cytokine death – cell-based, luminescence, retest, dose response (AID 449756); format: functional; details: Rattus norvegicus;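 note: cell death triggered by IL-1 beta plus TNF-alpha plus IFN-gamma mixture; protective hits raise ATP signal compared with cytokine alone wells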
BJ [8] = test: BJ-TERT-LT-ST fibroblast viability loss – cell-based, RAS-independent, luminescence, dose response (AID 1935); format: functional; details: Homo sapiens;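 note: BJ fibroblasts immortalized with TERT plus LT and ST oncogenes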
BJ [9] = test: growth inhibition of engineered Ras-driven BJ cells – cell-based, alamar blue fluorescence, cherrypicked samples, dose response (AID 2631); format: functional; details: Homo sapiens;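 note: confirmatory dose-response assay in RAS-dependent BJ fibroblasts engineered with TERT, LT and ST, with cytotoxicity read by fluorescence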
cells [10] = format: functional, cell-based
cells [11] = format: functional, cell-based; remark: listed apart in the source
[12] = target: DNA dC->dU-editing enzyme APOBEC-3A (Homo sapiens, UniProt P31941); test: Dose Response confirmation of small molecule APOBEC3A DNA Deaminase Inhibitors via a fluorescence-based single-stranded DNA deaminase assay. [Related pubchem assays (depositor defined):AID493011, AID493024]; format: functional
[13] = target: DNA dC->dU-editing enzyme APOBEC-3G (Homo sapiens, UniProt Q9HC16); format: functional;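 note: Dose-response counterscreen measuring inhibition of APOBEC3G DNA deaminase activity, run while confirming APOBEC3A inhibitors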
Chain of DNA dC->dU-editing enzyme APOBEC-3G (Q9HC16 whole entry): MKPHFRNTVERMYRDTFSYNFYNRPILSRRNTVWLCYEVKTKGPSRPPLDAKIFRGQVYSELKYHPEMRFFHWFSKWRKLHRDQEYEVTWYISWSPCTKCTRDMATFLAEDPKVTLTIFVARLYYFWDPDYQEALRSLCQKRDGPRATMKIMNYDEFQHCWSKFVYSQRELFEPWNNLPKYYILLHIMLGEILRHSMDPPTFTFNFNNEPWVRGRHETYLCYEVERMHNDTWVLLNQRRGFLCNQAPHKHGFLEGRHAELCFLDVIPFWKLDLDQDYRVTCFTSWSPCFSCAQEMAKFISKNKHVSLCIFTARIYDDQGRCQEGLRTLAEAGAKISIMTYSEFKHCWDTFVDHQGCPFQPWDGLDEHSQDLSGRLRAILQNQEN

Chain of DNA dC->dU-editing enzyme APOBEC-3A (P31941 whole entry): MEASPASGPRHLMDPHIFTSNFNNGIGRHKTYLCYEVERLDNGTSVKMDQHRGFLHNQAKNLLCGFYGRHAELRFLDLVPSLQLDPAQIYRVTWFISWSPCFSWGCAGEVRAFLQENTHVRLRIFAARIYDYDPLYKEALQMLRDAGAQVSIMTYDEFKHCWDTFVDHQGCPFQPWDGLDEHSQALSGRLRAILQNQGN

## Cn1cc(CN2CCCC(C(=O)Nc3ccc(-c4cccc(F)c4)cc3)C2)cn1 (stereo unspecified)
Vero [1]
  CC50: 22.3 µM (active)
Vero [2]
  IC50: 22.6 µM (active)

## CN1CCN(CCCN2c3ccccc3Sc3ccc(S(=O)(=O)N(C)C)cc32)CC1
Vero [1]
  CC50: > 25 µM (active)
Vero [2]
  IC50: > 25 µM (active)

## Cc1c(C(=O)O)cccc1-c1ccc(/C=N/n2cnnc2)o1
[3]
  IC50: 6.52 µM (active)

## CN(C)CCCN(C(=O)c1ccc2c(c1)OCCO2)c1nc2ccc(Cl)cc2s1
Vero [1]
  CC50: > 25 µM (active)
Vero [2]
  IC50: > 25 µM (active)

## COc1ccc(C(=O)/C=C/c2ccc(OC)c(CN3CCOCC3)c2)cc1
Vero [1]
  CC50: 22.6 µM (active)
Vero [2]
  IC50: 9.3 µM (active)
Protein skinhead-1
  IC50: 6.86 µM (active)

## Cc1ccn2c(=O)nc(SCC(=O)NCc3ccccc3Cl)nc2c1
[3]
  IC50: 8.34 µM (active)

## O=C(Cn1cnc2ccccc21)Nc1ccc2c(c1)OCCCO2
Exodeoxyribonuclease V
  IC50: > 119 µM (inactive)
[4]
  IC50: > 119 µM (inactive)

## C/C(=N\Nc1ccc2nncn2n1)c1ccccn1
[5]
  EC50: 4.95 µM (active)
BJ [6]
  EC50: 4.29 µM (active)
Exodeoxyribonuclease V
  IC50: 57.1 µM (inactive)
BJ [7]
  EC50: 16 µM (active)
INS1
  AC50: 0.898 µM (active)
BJ [8]
  EC50: 8.41 µM (inconclusive)
[4]
  IC50: 114 µM (inactive)
BJ [9]
  EC50: 0.912 µM (active)
Cells [10]
  EC50: 6.99 µM (active)
Cells [11]
  EC50: > 350 µM (not active)

## CC(c1ccccc1)C1OCC(C[N+]2(C)CCCCC2)O1 (stereo unspecified)
[12]
  IC50: 2.81 µM (active)
[3]
  IC50: 2.75 µM (active)
[13]
  IC50: 2.72 µM (active)
